Assay results: US7501425B1, “Bicyclic pyrimidines and bicyclic 3,4-dihydropyprimidines as inhibitors of cellular proliferation” (Warner Lambert Company, priority 1999, dated 2009)

SMILES	melting point
CC(C)n1c(=O)ncc2cnc(Nc3ccc(N4CCC(N(C)C)CC4)cc3)nc21 [Example 41, 7-{4-[4-(Dimethylamino)piperidin-1-yl]phenylamino}-1-isopropyl-pyrimido[4,5-d]pyrimidin-2(1H)-one]	> 100 °C (dec.)
CCN(CC)CCOc1ccc(Nc2ncc3cnc(=O)n(C4CCCC4)c3n2)cc1C [Example 34, 1-Cyclopentyl-7-{3-methyl-4-[2-(diethylamino)ethoxy]-phenylamino}pyrimido[4,5-d]pyrimidin-2(1H)-one]	> 95 °C (dec.)
CC(C)N1C(=O)NCc2cnc(Nc3ccc(N4CCC(N(C)C)CC4)cc3)nc21.O=C(O)C(F)(F)F [Example 24, 7-{4-[4-(Dimethylamino)piperidin-1-yl]phenylamino}-1-isopropyl-3,4-dihydro-pyrimido[4,5-d]pyrimidin-2(1H)-one; compound with trifluoroacetic acid]	215 to 217 °C (dec.)
CCN(CC)CCOc1ccc(Nc2ncc3c(n2)N(C2CCCC2)C(=O)NC3)cc1C [Example 13, 1-Cyclopentyl-7-{3-methyl-4-[2-(diethylamino)ethoxy]phenylamino}-3,4-dihydro-pyrimido[4,5-d]pyrimidin-2(1H)-one]	175 to 177 °C
O=C1NCc2cnc(Nc3ccc(N4CCCCC4CO)cc3)nc2N1C1CCCC1 (centres unmarked) [Example 19, 1-Cyclopentyl-7-[4-(2-hydroxymethylpiperidin-1-yl)phenylamino]-3,4-dihydro-pyrimido[4,5-d]pyrimidin-2(1H)-one]	220 to 221 °C
CCN1C(=O)N(c2cc(OC)cc(OC)c2Cl)Cc2cnc(SC)nc21 [Example 63, 3-(2-Chloro-3,5-dimethoxy-phenyl)-1-ethyl-7-methylsulfanyl-3,4-dihydro-pyrimido[4,5-d]pyrimidin-2(1H)-one]	189 to 191 °C
COc1ccc(Cn2c(=O)c3cnc(-n4ccnc4)nc3n(C(C)C)c2=O)cc1 [Example 69, 7-(Imidazol-1-yl)-1-isopropyl-3-(4-methoxybenzyl)-1H-pyrimido[4,5-d]pyrimidine-2,4-dione]	148 to 150 °C (dec.)
CCN(CC)CCOc1ccc(Nc2ncc3c(=O)n(Cc4ccc(OC)cc4)c(=O)n(C(C)C)c3n2)cc1 [Example 73, 7-[4-(2-Diethylaminoethoxy)phenylamino]-1-isopropyl-3-(4-methoxybenzyl)-1H-pyrimido[4,5-d]pyrimidine-2,4-dione]	139 to 141 °C
CN1CCN(c2ccc(Nc3ncc4c(n3)N(C3CCCC3)C(=O)NC4)cc2)CC1 [Example 11, 1-Cyclopentyl-7-[4-(4-methylpiperazin-1-yl)phenylamino]-3,4-dihydro-pyrimido[4,5-d]pyrimidin-2(1H)-one]	236 to 239 °C (dec.)
CCNc1nc(SC)ncc1CNc1cc(OC)cc(OC)c1Cl [Example 62, {5-[(2-Chloro-3,5-dimethoxy-phenylamino)-methyl]-2-methylsulfanyl-pyrimidin-4-yl}-ethyl-amine]	116.5 to 118.5 °C
CCN1C(=O)N(c2cc(OC)cc(OC)c2)Cc2cnc(SC)nc21 (hydrate or solvate) [Example 50a, 3-(3,5-Dimethoxy-phenyl)-1-ethyl-7-methylsulfanyl-3,4-dihydro-pyrimido[4,5-d]pyrimidin-2(1H)-one]	134 to 136 °C
O=c1ncc2cnc(Nc3ccc(N4CCCC(O)C4)cc3)nc2n1C1CCCC1 (centres unmarked) [Example 35, 1-Cyclopentyl-7-[4-(3-hydroxypiperidin-1-yl)phenylamino]pyrimido[4,5-d]-pyrimidin-2(1H)-one]	> 135 °C (dec.)
COc1ccc(Nc2ncc3c(n2)N(C2CCCC2)C(=O)NC3)cc1 [Example 9, 1-Cyclopentyl-7-(4-methoxyphenylamino)-3,4-dihydro-pyrimido[4,5-d]pyrimidin-2(1H)-one]	247 to 249 °C (dec.)
CC(C)N1C(=O)NCc2cnc([S+](C)[O-])nc21 (centres unmarked) [Example 6, 1-Isopropyl-7-methanesulfinyl-3,4-dihydro-pyrimido[4,5-d]pyrimidin-2(1H)-one]	218 to 219 °C (dec.)
O=c1ncc2cnc(Nc3ccc(-n4cccn4)cc3)nc2n1C1CCCC1 [Example 36, 1-Cyclopentyl-7-[4-(pyrazol-1-yl)phenylamino]pyrimido[4,5-d]pyrimidin-2(1H)-one]	> 135 °C (dec.)
CCNc1nc(SC)ncc1C=Nc1cc(OC)cc(OC)c1 [Example 48a, {5-[(3,5-Dimethoxy-phenylimino)-methyl]-2-methylsulfanyl-pyrimidin-4-yl}-ethyl-amine]	100 to 105 °C
O=c1ncc2cnc(Nc3ccc(N4CCC(CCN5CCOCC5)CC4)cc3)nc2n1C1CCCC1 [Example 39]	> 140 °C (dec.)
O=C1NCc2cnc(Nc3ccc(N4CCCC(O)C4)cc3)nc2N1C1CCCC1 (centres unmarked) [Example 16, 1-Cyclopentyl-7-[4-(3-hydroxypiperidin-1-yl)phenylamino]-3,4-dihydro-pyrimido[4,5-d]pyrimidin-2(1H)-one]	> 200 °C (dec.)
CN1C(=O)NCc2cnc(Nc3ccc(N4CCC(N(C)C)CC4)cc3)nc21.O=C(O)C(F)(F)F [Example 30, 7-{4-[4-(Dimethylamino)piperidin-1-yl]phenylamino}-1-methyl-3,4-dihydro-pyrimido[4,5-d]pyrimidin-2(1H)-one; compound with trifluoroacetic acid]	190 to 191 °C (dec.)
O=C1NCc2cnc(Nc3ccc(N4CCCCC4)cc3)nc2N1C1CCCC1 [Example 10, 1-Cyclopentyl-7-[4-(piperidin-1-yl)phenylamino]-3,4-dihydro-pyrimido [4,5-d]pyrimidin-2(1H)-one]	254 to 277 °C (dec.)
C=CCn1c(=O)c2cnc(-n3ccnc3)nc2n(C(C)C)c1=O [Example 68, 3-Allyl-7-(imidazol-1-yl)-1-isopropyl-1H-pyrimido [4,5-d]pyrimidine-2,4-dione]	158 to 160 °C
COc1cc(OC)cc(N2Cc3cnc([S+](C)[O-])nc3NC2=O)c1 (centres unmarked) [Example 51, 3-(3,5-Dimethoxy-phenyl)-7-methanesulfinyl-3,4-dihydro-pyrimido [4,5-d]pyrimidin-2(1H)-one]	220 to 222 °C
COc1cc(OC)cc(N2Cc3cnc(SC)nc3N=C2N)c1 [Example 66, 3-(3,5-Dimethoxy-phenyl)-7-methylsulfanyl-3,4-dihydro-pyrimido [4,5-d]pyrimidin-2-ylamine]	198 to 204 °C
CC1CN(c2ccc(Nc3ncc4c(n3)N(C3CCCC3)C(=O)NC4)cc2)CC(C)N1 (centres unmarked) [Example 18, 1-Cyclopentyl-7-[4-(3,5-dimethylpiperazin-1-yl)phenylamino]-3,4-dihydro-pyrimido[4,5-d]pyrimidin-2(1H)-one]	> 200 °C (dec.)
O=C1NCc2cnc(Nc3ccc(N4CCC(CCCO)CC4)cc3)nc2N1C1CCCC1 [Example 20, 1-Cyclopentyl-7-{4-[4-(3-hydroxypropyl)piperidin-1-yl]phenylamino}-3,4-dihydro-pyrimido[4,5-d]pyrimidin-2(1H)-one]	> 230 °C
O=C1NCc2cnc(Nc3ccc(N4CCC(O)CC4)cc3)nc2N1C1CCCC1 [Example 15, 1-Cyclopentyl-7-[4-(4-hydroxypiperidin-1-yl)phenylamino]-3,4-dihydro-pyrimido [4,5-d]pyrimidin-2(1H)-one]	> 200 °C (dec.)
